Laboratory results reported in US11613546B2, “Substituted pyridotriazine compounds and uses thereof” (Gilead Sciences, Inc., priority 2021, dated 2023).
Read-outs that look alike come from different tables or passages of the source.

Assays:
Assay type in all cases: cell-based
[1] = test system: HIV-1 (IIIB); assay: Antiviral assay in MT-4 cells; conditions: HIV-1 IIIB infected MT-4 cells, 5 days, Cell Titer Glo, read-out: MT4 EC50
In short: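 MT-4 cells infected with a 1:250 dilution of HIV-1 IIIB stock were incubated with serially diluted (1:3) compound for 5 days at 37 °C. Viability read by Cell Titer Glo luminescence; EC50 is the concentration giving 50% decrease in signal, from sigmoidal dose-response fits.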

[2] = test system: MT-4 cells; assay: Cytotoxicity assay in MT-4 cells
In short: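 Uninfected MT-4 cells were incubated with 1:3 serially diluted compound in RPMI/10% FBS for 5 days at 37° C. Viability was read by CellTiter-Glo luminescence, with 10 μM puromycin as the baseline cytotoxicity control. Values are the concentration giving a 50% decrease in luminescence, from sigmoidal dose-response fits.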

[3] = test system: pLai RLuc reporter virus; assay: HIV MT-4 serum shift antiviral reporter assay
In short: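 MT-4 cells pre-infected with pLai RLuc virus for 2 h at 37 °C, then incubated 72 h at 37 °C with compound in medium (RPMI, 10% FBS) with or without 50% human serum; Renilla luminescence read. EC50 from sigmoidal fit; serum shift = EC50(HS/CCM)/EC50(CCM).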

[4] = uninfected MT-4 cells, 5 days, Cell Titer Glo, read-out: CC50
[5] = read-out: RLUC 50% HS, HS/CCM: 50% human serum, 72 h, Renilla Glo
[6] = read-out: RLUC CCM, cell culture media (RPMI, 10% FBS), 72 h, Renilla Glo
[7] = HS/CCM: 50% human serum, 72 h, Renilla Glo, read-out: RLUC 50% HS
[8] = cell culture media (RPMI, 10% FBS), 72 h, Renilla Glo, read-out: RLUC CCM
[9] = Human immunodeficiency virus 1, IIIB, MT4, 120 h
[10] = Human immunodeficiency virus 1, 72 h, read-out: RLUC CCM (nM), cell culture media (RPMI, 10% FBS), 72 h, Renilla Glo

Structure (SMILES) | EC50 [1] | CC50 [2, 4] | EC50 [3, 5] | EC50 [3, 6] | EC50 [3, 7] | EC50 [3, 8] | EC50 [1, 9] | EC50 ([3]; Human immunodeficiency virus 1, 72 h, read-out: RLUC 50% HS (nM), HS/CCM: 50% human serum, 72 h, Renilla Glo) | EC50 [3, 10] | CC50 [2]
C[C@H]1C/C=C\CN2CN1n1cc(C(=O)NCc3ccc(F)cc3F)c(=O)c(O)c1C2=O [Example C41, (1S,2S,Z)—N-(2,4-difluorobenzyl)-9-hydroxy-2-methyl-8,10-dioxo-3,6,8,10-tetrahydro-2H-1,7-methanopyrido[1,2-b][1,2,5]triazecine-11-carboxamide] | 1.2 nM | 14200 nM | 68.6 nM | 0.71 nM | – | – | – | – | – | –
C[C@H]1/C=C\C[C@H](C)N2CN1C(=O)c1c(O)c(=O)c(C(=O)NCc3c(F)cc(F)cc3F)cn12 [Example C19, (1R,2S,6S,Z)-9-hydroxy-2,6-dimethyl-8,10-dioxo-N-(2,4,6-trifluorobenzyl)-3,6,8,10-tetrahydro-2H-1,7-methanopyrido[1,2-b][1,2,5]triazecine-11-carboxamide] | 1.1 nM | 10200 nM | – | – | 60.3 nM | 0.41 nM | – | – | – | –
COC[C@@H]1C=C[C@H](C)N2CN1n1cc(C(=O)NCc3c(F)cc(F)cc3F)c(=O)c(O)c1C2=O [Example C79, (1S,2S,5S)-8-hydroxy-2-(methoxymethyl)-5-methyl-7,9-dioxo-N-(2,4,6-trifluorobenzyl)-2,5,7,9-tetrahydro-1,6-methanopyrido[1,2-b][1,2,5]triazonine-10-carboxamide] | – | 50000 nM | – | – | – | – | 4.6 nM | 638 nM | 1.81 nM | –
C[C@H]1C/C=C\CN2CN1n1cc(C(=O)NCc3ccc(F)cc3F)c(=O)c(O)c1C2=O [Example C43, (1R,2S,Z)—N-(2,4-difluorobenzyl)-9-hydroxy-2-methyl-8,10-dioxo-3,6,8,10-tetrahydro-2H-1,7-methanopyrido[1,2-b][1,2,5]triazecine-11-carboxamide] | 5.3 nM | 6110 nM | 544 nM | 1.68 nM | – | – | – | – | – | –
C[C@H]1C=CC(C)(C)N2CN1n1cc(C(=O)NCc3ccc(F)cc3F)c(=O)c(O)c1C2=O [Example C92, (1S,2S)—N-(2,4-difluorobenzyl)-8-hydroxy-2,5,5-trimethyl-7,9-dioxo-2,5,7,9-tetrahydro-1,6-methanopyrido[1,2-b][1,2,5]triazonine-10-carboxamide] | 1.5 nM | 17500 nM | – | – | 246 nM | 0.67 nM | – | – | – | –
C[C@H]1CC[C@@H](C(F)F)N2CN1C(=O)c1c(O)c(=O)c(C(=O)NCc3c(F)cc(F)cc3F)cn12 [Example C78, (1S,2S,5S)-2-(difluoromethyl)-8-hydroxy-5-methyl-7,9-dioxo-N-(2,4,6-trifluorobenzyl)-2,3,4,5,7,9-hexahydro-1,6-methanopyrido[1,2-b][1,2,5]triazonine-10-carboxamide] | 1.6 nM | 13700 nM | – | – | 1040 nM | 0.42 nM | – | – | – | –
C[C@H]1CC[C@H](C)N2CN1C(=O)c1c(O)c(=O)c(C(=O)NCc3c(F)cc(F)cc3F)cn12 [Example C66, (1R,2S,5S)-8-hydroxy-2,5-dimethyl-7,9-dioxo-N-(2,4,6-trifluorobenzyl)-2,3,4,5,7,9-hexahydro-1,6-methanopyrido[1,2-b][1,2,5]triazonine-10-carboxamide] | 1.4 nM | 10400 nM | 179 nM | 0.5 nM | – | – | – | – | – | –
C[C@@H]1C=C[C@@H](C)N2CN1C(=O)c1c(O)c(=O)c(C(=O)NCc3ccc(F)cc3F)cn12 [Example C68, (1R,2R,5R)—N-(2,4-difluorobenzyl)-8-hydroxy-2,5-dimethyl-7,9-dioxo-2,5,7,9-tetrahydro-1,6-methanopyrido[1,2-b][1,2,5]triazonine-10-carboxamide] | – | 17300 nM | 291 nM | – | – | – | 1.6 nM | – | 0.82 nM | –
C[C@@H]1C[C@@H](F)[C@@H](F)CN2CN1n1cc(C(=O)NCc3ccc(F)cc3F)c(=O)c(O)c1C2=O (single isomer, unassigned) [Example C38] | 1.5 nM | 13600 nM | – | – | 17 nM | 1.1 nM | – | – | – | –
C[C@H]1CCC(C)(C)N2CN1n1cc(C(=O)NCc3ccc(F)cc3F)c(=O)c(O)c1C2=O [Example C94, (1R,2S)—N-(2,4-difluorobenzyl)-8-hydroxy-2,5,5-trimethyl-7,9-dioxo-2,3,4,5,7,9-hexahydro-1,6-methanopyrido[1,2-b][1,2,5]triazonine-10-carboxamide] | 25.1 nM | 50000 nM | – | – | 361 nM | 6.21 nM | – | – | – | –
C[C@@H]1C/C=C\[C@H](C)N2CN1n1cc(C(=O)NCc3c(F)cc(F)cc3F)c(=O)c(O)c1C2=O [Example C7, (1S,2R,6S,Z)-9-hydroxy-2,6-dimethyl-8,10-dioxo-N-(2,4,6-trifluorobenzyl)-3,6,8,10-tetrahydro-2H-1,7-methanopyrido[1,2-b][1,2,5]triazecine-11-carboxamide] | 2.1 nM | 9190 nM | – | – | 172 nM | 0.35 nM | – | – | – | –
O=C(NCc1c(F)cc(F)cc1F)c1cn2c(c(O)c1=O)C(=O)N1Cc3ccc(F)cc3CN2C1 [Example C2, (6R)-9-fluoro-1-hydroxy-2,14-dioxo-N-(2,4,6-trifluorobenzyl)-2,7,12,14-tetrahydro-6,13-methanobenzo[g]pyrido[1,2-b][1,2,5]triazonine-3-carboxamide] | 18 nM | 12800 nM | – | – | 47.9 nM | 2.86 nM | – | – | – | –
O=C(NCc1c(F)cc(F)cc1F)c1cn2c(c(O)c1=O)C(=O)N1CCCCN2C1 [Example C108, (1R)-8-hydroxy-7,9-dioxo-N-(2,4,6-trifluorobenzyl)-2,3,4,5,7,9-hexahydro-1,6-methanopyrido[1,2-b][1,2,5]triazonine-10-carboxamide] | 3.3 nM | 22900 nM | – | – | 208 nM | 0.98 nM | – | – | – | –
O=C(NCc1c(F)cc(F)cc1F)c1cn2c(c(O)c1=O)C(=O)N1Cc3cc(F)ccc3CN2C1 [Example C3, (6S)-10-fluoro-1-hydroxy-2,14-dioxo-N-(2,4,6-trifluorobenzyl)-2,7,12,14-tetrahydro-6,13-methanobenzo[g]pyrido[1,2-b][1,2,5]triazonine-3-carboxamide] | 1.7 nM | 13400 nM | – | – | 2.72 nM | 0.39 nM | – | – | – | –
C[C@@H]1[C@H]2C[C@H]2[C@H](C)N2CN1n1cc(C(=O)NCc3c(F)cc(F)cc3F)c(=O)c(O)c1C2=O [Example C89, (1aS,2R,3R,11S,11aR)-8-hydroxy-2,11-dimethyl-7,9-dioxo-N-(2,4,6-trifluorobenzyl)-1a,2,7,9,11,11a-hexahydro-1H-3,10-methanocyclopropa[g]pyrido[1,2-b][1,2,5]triazonine-6-carboxamide] | 1.1 nM | 37200 nM | – | – | 36.5 nM | 1.09 nM | – | – | – | –
C[C@@H]1C=C[C@H](CF)N2CN1n1cc(C(=O)NCc3ccc(F)cc3F)c(=O)c(O)c1C2=O [Example C49a, (1S,10R,13R)—N-[(2,4-difluorophenyl)methyl]-10-(fluoromethyl)-6-hydroxy-13-methyl-5,8-dioxo-1,2,9-triazatricyclo[7.4.1.02,7]tetradeca-3,6,11-triene-4-carboxamide] | 1.2 nM | 11300 nM | – | – | 140 nM | 0.64 nM | – | – | – | –
C[C@@H]1CCC[C@H](C)N2CN1n1cc(C(=O)NCc3c(F)cc(F)cc3F)c(=O)c(O)c1C2=O [Example C21, (1R,2S,6S)-9-hydroxy-2,6-dimethyl-8,10-dioxo-N-(2,4,6-trifluorobenzyl)-3,4,5,6,8,10-hexahydro-2H-1,7-methanopyrido[1,2-b][1,2,5]triazecine-11-carboxamide] | 1.7 nM | 11700 nM | 98.1 nM | 0.23 nM | – | – | – | – | – | –
C[C@H]1C=C[C@H](CF)N2CN1C(=O)c1c(O)c(=O)c(C(=O)NCc3c(F)cc(F)cc3F)cn12 [Example C80, (1R,2R,5S)-2-(fluoromethyl)-8-hydroxy-5-methyl-7,9-dioxo-N-(2,4,6-trifluorobenzyl)-2,5,7,9-tetrahydro-1,6-methanopyrido[1,2-b][1,2,5]triazonine-10-carboxamide] | 8.1 nM | – | – | – | 810 nM | 1.24 nM | – | – | – | 25400 nM
CO[C@@H]1C=C[C@H](C)N2CN1n1cc(C(=O)NCc3c(F)cc(F)cc3F)c(=O)c(O)c1C2=O [Example C46, (1R,2R,5S)-8-hydroxy-2-methoxy-5-methyl-7,9-dioxo-N-(2,4,6-trifluorobenzyl)-2,5,7,9-tetrahydro-1,6-methanopyrido[1,2-b][1,2,5]triazonine-10-carboxamide] | 1.6 nM | 27000 nM | – | – | 468 nM | 0.44 nM | – | – | – | –
C[C@H]1C=C[C@H](C)N2CN1C(=O)c1c(O)c(=O)c(C(=O)NCc3c(F)cc(F)cc3F)cn12 [Example C26, (1R,2S,5S)-8-hydroxy-2,5-dimethyl-7,9-dioxo-N-(2,4,6-trifluorobenzyl)-2,5,7,9-tetrahydro-1,6-methanopyrido[1,2-b][1,2,5]triazonine-10-carboxamide] | 2.4 nM | 28100 nM | 349 nM | 0.63 nM | – | – | – | – | – | –
